Experimental data reported in PubChem BioAssay (NCI).
“And” between values parts separate entries of the source, which are not always exact repeats. Identical values can stand only once.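 Growth conditions: 96-well plates. Treatment: test compound, 48 hours, 5 concentrations. Analysis: linear interpolation between bracketing concentrations; unreached endpoints set to highest concentration. Here, GI50 denotes the concentration required for 50% inhibition of growth. TGI marks complete inhibition of growth.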

Columns and labels:
Test in all cases: NCI anticancer screen, dose series, 48 h; in the data active means GI50 below about 0.43 µM; inactive means the rest
786-0 renal = system: 786-0 renal
A498 renal = system: A498 renal
A549 NSCLC = system: A549 NSCLC
ACHN renal = system: ACHN renal
BT-549 breast = system: BT-549 breast
COLO 205 colon = system: COLO 205 colon
DU-145 prostate = system: DU-145 prostate
EKVX NSCLC = system: EKVX NSCLC
HCC-2998 colon = system: HCC-2998 colon
HCT-116 colon = system: HCT-116 colon
HCT-15 colon = system: HCT-15 colon
HL-60(TB) leukemia = system: HL-60(TB) leukemia
HOP-62 NSCLC = system: HOP-62 NSCLC
HOP-92 NSCLC = system: HOP-92 NSCLC
HS 578T breast = system: HS 578T breast
HT29 colon = system: HT29 colon
IGROV1 ovarian = system: IGROV1 ovarian
K-562 leukemia = system: K-562 leukemia
KM12 colon = system: KM12 colon
M14 melanoma = system: M14 melanoma
MCF7 breast = system: MCF7 breast
MDA-MB-231 breast = system: MDA-MB-231 breast
MDA-MB-435 = system: MDA-MB-435
MDA-N = system: MDA-N
MOLT-4 leukemia = system: MOLT-4 leukemia
NCI-H226 lung = system: NCI-H226 lung
NCI-H23 lung = system: NCI-H23 lung
NCI-H460 lung = system: NCI-H460 lung
NCI/ADR-RES ovarian = system: NCI/ADR-RES ovarian
OVCAR-3 ovarian = system: OVCAR-3 ovarian
OVCAR-4 ovarian = system: OVCAR-4 ovarian
OVCAR-5 ovarian = system: OVCAR-5 ovarian
OVCAR-8 ovarian = system: OVCAR-8 ovarian
RPMI-8226 leukemia = system: RPMI-8226 leukemia
RXF 393 renal = system: RXF 393 renal
SF-268 CNS = system: SF-268 CNS
SF-295 CNS = system: SF-295 CNS
SF-539 CNS = system: SF-539 CNS
SK-MEL-2 melanoma = system: SK-MEL-2 melanoma
SK-MEL-28 melanoma = system: SK-MEL-28 melanoma
SK-MEL-5 melanoma = system: SK-MEL-5 melanoma
SK-OV-3 ovarian = system: SK-OV-3 ovarian
SN12C renal = system: SN12C renal
SNB-19 CNS = system: SNB-19 CNS
SNB-75 CNS = system: SNB-75 CNS
SW-620 colon = system: SW-620 colon
T-47D breast = system: T-47D breast
TK-10 renal = system: TK-10 renal
U251 CNS = system: U251 CNS
UACC-257 melanoma = system: UACC-257 melanoma
UACC-62 melanoma = system: UACC-62 melanoma
UO-31 renal = system: UO-31 renal
CAKI-1 renal = system: CAKI-1 renal
CCRF-CEM leukemia = system: CCRF-CEM leukemia
LOX IMVI melanoma = system: LOX IMVI melanoma
MALME-3M melanoma = system: MALME-3M melanoma
NCI-H522 lung = system: NCI-H522 lung
PC-3 prostate = system: PC-3 prostate

COc1ccccc1N1C(=O)CSC1c1c[nH]c2ccccc12 (stereo not given)
> 100000 nM: TGI (786-0 renal) | TGI (A498 renal) | TGI (A549 NSCLC) | TGI (ACHN renal) | TGI (BT-549 breast) | TGI (COLO 205 colon) | TGI (DU-145 prostate) | TGI (EKVX NSCLC) | TGI (HCC-2998 colon) | TGI (HCT-116 colon) | TGI (HCT-15 colon) | TGI (HL-60(TB) leukemia) | TGI (HOP-62 NSCLC) | TGI (HOP-92 NSCLC) | TGI (HS 578T breast) | TGI (HT29 colon) | TGI (IGROV1 ovarian) | TGI (K-562 leukemia) | TGI (KM12 colon) | TGI (M14 melanoma) | TGI (MCF7 breast) | TGI (MDA-MB-231 breast) | TGI (MDA-MB-435) | TGI (MDA-N) | TGI (MOLT-4 leukemia) | TGI (NCI-H226 lung) | TGI (NCI-H23 lung) | TGI (NCI-H460 lung) | TGI (NCI/ADR-RES ovarian) | TGI (OVCAR-3 ovarian) | TGI (OVCAR-4 ovarian) | TGI (OVCAR-5 ovarian) | TGI (OVCAR-8 ovarian) | TGI (RPMI-8226 leukemia) | TGI (RXF 393 renal) | TGI (SF-268 CNS) | TGI (SF-295 CNS) | TGI (SF-539 CNS) | TGI (SK-MEL-2 melanoma) | TGI (SK-MEL-28 melanoma) | TGI (SK-MEL-5 melanoma) | TGI (SK-OV-3 ovarian) | TGI (SN12C renal) | TGI (SNB-19 CNS) | TGI (SNB-75 CNS) | TGI (SW-620 colon) | TGI (T-47D breast) | TGI (TK-10 renal) | TGI (U251 CNS) | TGI (UACC-257 melanoma) | TGI (UACC-62 melanoma) | TGI (UO-31 renal)

COc1cccc2c1C(=O)c1c(O)c3c(c(O)c1C2=O)C[C@@](O)(C(=O)CO)C[C@@H]3OC1CC2C(OCN3CN2COC2C(C)OC(O[C@H]4C[C@](O)(C(=O)CO)Cc5c(O)c6c(c(O)c54)C(=O)c4c(OC)cccc4C6=O)CC23)C(C)O1 (stereo not given in full)
374 nM and 352 nM and 133 nM: TGI (MDA-MB-435)
66.3 nM and 34.2 nM: TGI (SNB-75 CNS)
705 nM and 893 nM: TGI (MDA-MB-231 breast)
574 nM and 294 nM: TGI (SK-MEL-28 melanoma)
2640 nM and 294 nM: TGI (KM12 colon)
332 nM and 381 nM: TGI (M14 melanoma)
3200 nM: TGI (SNB-19 CNS)
160 nM and 53.8 nM: TGI (NCI-H522 lung)
616 nM and 72 nM: TGI (EKVX NSCLC)
5220 nM: TGI (OVCAR-4 ovarian)
4220 nM and 1270 nM: TGI (OVCAR-8 ovarian)
112 nM and 67 nM: TGI (SK-MEL-2 melanoma)
204 nM and 28.7 nM: TGI (LOX IMVI melanoma)
25000 nM and 8210 nM: TGI (NCI/ADR-RES ovarian)
277 nM and 500 nM and 104 nM: TGI (HCC-2998 colon)
673 nM: TGI (ACHN renal)
198 nM and 381 nM and 136 nM: TGI (UACC-257 melanoma)
96.6 nM and 134 nM and 35.9 nM: TGI (SN12C renal)
473 nM and 312 nM: TGI (COLO 205 colon)
381 nM and 263 nM and 506 nM: TGI (HOP-92 NSCLC)
64.1 nM and 148 nM: TGI (RXF 393 renal)
419 nM and 2770 nM and 1230 nM: TGI (HOP-62 NSCLC)
6.58 nM: TGI (MOLT-4 leukemia)
11.6 nM: TGI (RPMI-8226 leukemia)
25000 nM and 4710 nM: TGI (SK-OV-3 ovarian)
3450 nM and 1350 nM: TGI (SF-295 CNS)
209 nM and 108 nM and 21.7 nM: TGI (NCI-H23 lung)
537 nM and 85.6 nM: TGI (HCT-116 colon)
710 nM and 2600 nM: TGI (U251 CNS)
734 nM and 1320 nM and 210 nM: TGI (BT-549 breast)
active: GI50 (786-0 renal) 7.92 nM | GI50 (A498 renal) 3.82 nM | GI50 (A549 NSCLC) 12.8 nM | GI50 (ACHN renal) 8.2 nM | GI50 (BT-549 breast) 117 nM and 26.2 nM | GI50 (CAKI-1 renal) 17.5 nM | GI50 (CCRF-CEM leukemia) 3.01 nM | GI50 (COLO 205 colon) 12.7 nM | GI50 (DU-145 prostate) 11.9 nM | GI50 (EKVX NSCLC) 85.5 nM and 19.9 nM | GI50 (HCC-2998 colon) 75 nM and 23.9 nM | GI50 (HCT-116 colon) 16.6 nM | GI50 (HCT-15 colon) 118 nM and 51.7 nM | GI50 (HL-60(TB) leukemia) 2.67 nM | GI50 (HOP-62 NSCLC) 21.8 nM | GI50 (HOP-92 NSCLC) 15.3 nM and 15.9 nM | GI50 (HS 578T breast) 32.1 nM | GI50 (HT29 colon) 19.9 nM | GI50 (IGROV1 ovarian) 17.6 nM | GI50 (KM12 colon) 46 nM and 17.9 nM | GI50 (M14 melanoma) 50.5 nM | GI50 (MALME-3M melanoma) 15.9 nM | GI50 (MDA-MB-231 breast) 48.2 nM | GI50 (MDA-MB-435) 64.9 nM and 26.7 nM | GI50 (MDA-N) 52.2 nM and 21 nM | GI50 (NCI-H226 lung) 35.7 nM and 10.2 nM | GI50 (NCI-H23 lung) 11.6 nM | GI50 (NCI-H522 lung) 6.8 nM | GI50 (NCI/ADR-RES ovarian) 325 nM and 58.6 nM | GI50 (OVCAR-3 ovarian) 46.7 nM and 15.4 nM | GI50 (OVCAR-4 ovarian) 104 nM | GI50 (OVCAR-5 ovarian) 88.6 nM and 20.2 nM | GI50 (OVCAR-8 ovarian) 17.6 nM | GI50 (PC-3 prostate) 50.1 nM | GI50 (RPMI-8226 leukemia) 4.87 nM | GI50 (RXF 393 renal) 14.8 nM | GI50 (SF-268 CNS) 6.35 nM and 12.2 nM | GI50 (SF-295 CNS) 31.2 nM | GI50 (SF-539 CNS) 5.53 nM | GI50 (SK-MEL-2 melanoma) 23 nM | GI50 (SK-MEL-28 melanoma) 49.3 nM | GI50 (SK-MEL-5 melanoma) 44.7 nM | GI50 (SK-OV-3 ovarian) 131 nM and 42.9 nM | GI50 (SN12C renal) 12.1 nM | GI50 (SNB-19 CNS) 15.2 nM | GI50 (SNB-75 CNS) 7.56 nM | GI50 (SW-620 colon) 10.4 nM | GI50 (T-47D breast) 69.7 nM | GI50 (TK-10 renal) 232 nM | GI50 (U251 CNS) 7.72 nM | GI50 (UACC-257 melanoma) 24.4 nM | GI50 (UACC-62 melanoma) 5.01 nM
148 nM: TGI (HT29 colon)
197 nM and 80.9 nM: TGI (MALME-3M melanoma)
229 nM and 272 nM and 131 nM: TGI (MDA-N)
935 nM and 890 nM: TGI (PC-3 prostate)
4630 nM: TGI (A549 NSCLC)
236 nM and 263 nM: TGI (SK-MEL-5 melanoma)
